According to the supplement of paper PMC10307832:

Key:
Assay in all cases: relative viability (nuclei count vs DMSO), 5 days (fraction); higher = more cells survive
Zosuquidar + Palbociclib = compound: O[C@@H](COc1cccc2ncccc12)CN1CCN([C@@H]2c3ccccc3[C@@H]3[C@H](c4ccccc42)C3(F)F)CC1 [Zosuquidar] + CC(=O)c1c(C)c2cnc(Nc3ccc(N4CCNCC4)cn3)nc2n(C2CCCC2)c1=O [Palbociclib] (partner 0.5 µM)
Outline: (§1)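 Cells from lung cancer lines were seeded into 1536-well plates and, one day later, dosed by pin tool. Treatments were either a single drug or a fixed dose of an anchor drug with five library-drug doses (not always all listed) in √10 steps. After 5 days, nuclei were stained in a one-step fixation (final 0.05% Triton X-100, 1% formaldehyde, 1 ug/ml Hoechst) and counted on 4× images, and relative viability is the treated-to-vehicle nuclei ratio, as the median of duplicate plates.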

Zosuquidar + Vorinostat = compound: O[C@@H](COc1cccc2ncccc12)CN1CCN([C@@H]2c3ccccc3[C@@H]3[C@H](c4ccccc42)C3(F)F)CC1 [Zosuquidar] + O=C(CCCCCCC(=O)Nc1ccccc1)NO [Vorinostat] (partner 1 µM)
Outline: as §1

[1] = compound: COc1cc2nccc(Oc3ccc(NC(=O)C4(C(=O)Nc5ccc(F)cc5)CC4)cc3)c2cc1OC [Cabozantinib] + Nc1ncn([C@H]2C[C@H](O)[C@@H](CO)O2)c(=O)n1 [Decitabine] (partner 2 µM)
Outline: as §1

Cabozantinib + Alpelisib = compound: COc1cc2nccc(Oc3ccc(NC(=O)C4(C(=O)Nc5ccc(F)cc5)CC4)cc3)c2cc1OC [Cabozantinib] + Cc1nc(NC(=O)N2CCC[C@H]2C(N)=O)sc1-c1ccnc(C(C)(C)C(F)(F)F)c1 [Alpelisib] (partner 2 µM)
Outline: as §1

Row | Cell Line | relative viability (Zosuquidar + Palbociclib; first compound 0.01 µM) | relative viability (Zosuquidar + Palbociclib; first compound 0.03162 µM) | relative viability (Zosuquidar + Palbociclib; first compound 0.1 µM) | relative viability (Zosuquidar + Palbociclib; first compound 0.3162 µM) | relative viability (Zosuquidar + Palbociclib; first compound 1 µM) | relative viability (Zosuquidar + Vorinostat; first compound 0.01 µM) | relative viability (Zosuquidar + Vorinostat; first compound 0.03162 µM) | relative viability (Zosuquidar + Vorinostat; first compound 0.1 µM) | relative viability (Zosuquidar + Vorinostat; first compound 0.3162 µM) | relative viability (Zosuquidar + Vorinostat; first compound 1 µM) | relative viability ([1]; first compound 0.02 µM) | relative viability ([1]; first compound 0.06325 µM) | relative viability ([1]; first compound 0.2 µM) | relative viability ([1]; first compound 0.6325 µM) | relative viability ([1]; first compound 2 µM) | relative viability (Cabozantinib + Alpelisib; first compound 0.02 µM) | relative viability (Cabozantinib + Alpelisib; first compound 0.06325 µM) | relative viability (Cabozantinib + Alpelisib; first compound 0.2 µM) | relative viability (Cabozantinib + Alpelisib; first compound 0.6325 µM) | relative viability (Cabozantinib + Alpelisib; first compound 2 µM)
1 | LXF-289 | 0.576 | 0.599 | 0.614 | 0.582 | 0.584 | 0.727 | 0.759 | 0.72 | 0.788 | 0.78 | 0.353 | 0.395 | 0.392 | 0.433 | 0.377 | 1.11 | 1.09 | 1.01 | 1 | 0.997
2 | NCI-H1703 |  |  |  |  |  |  |  |  |  |  |  |  |  |  |  | 0.265 | 0.182 | 0.223 | 0.23 | 0.151
3 | SK-MES-1 | 0.332 | 0.347 | 0.374 | 0.329 | 0.319 | 1.03 | 1.06 | 0.929 | 1.13 | 1.18 | 0.449 | 0.412 | 0.373 | 0.431 | 0.399 | 1.08 | 0.993 | 0.846 | 0.826 | 0.816
4 | NCI-H522 | 1.14 | 0.869 | 1.01 | 1.09 | 0.908 | 0.909 | 0.796 | 0.927 | 0.887 | 0.871 | 0.577 | 0.655 | 0.564 | 0.74 | 0.654 |  |  |  |  | 
5 | LOU-NH91 | 0.488 | 0.539 | 0.529 | 0.552 | 0.499 | 0.854 | 0.917 | 0.772 | 0.941 | 0.919 | 0.798 | 0.825 | 0.654 | 0.791 | 0.802 | 0.721 | 0.793 | 0.505 | 0.742 | 0.713
6 | NCI-H1355 | 0.417 | 0.397 | 0.404 | 0.308 | 0.412 | 0.621 | 0.644 | 0.602 | 0.652 | 0.669 | 0.401 | 0.372 | 0.33 | 0.363 | 0.367 | 0.934 | 0.873 | 0.904 | 0.857 | 0.732
7 | NCI-H460 | 0.15 | 0.18 | 0.203 | 0.171 | 0.19 | 0.658 | 0.747 | 0.687 | 0.776 | 0.739 | 0.509 | 0.477 | 0.724 | 0.51 | 0.486 | 0.667 | 0.61 | 0.459 | 0.579 | 0.483
8 | Calu-6 |  |  |  |  |  |  |  |  |  |  |  |  |  |  |  | 1.02 | 1.09 | 1.05 | 1.04 | 0.906
9 | NCI-H2342 | 0.531 | 0.528 | 0.519 | 0.502 | 0.553 | 0.753 | 0.807 | 0.686 | 0.813 | 0.81 | 0.642 | 0.832 | 0.765 | 0.788 | 0.544 |  |  |  |  | 
10 | ChaGo-K-1 | 0.885 | 0.994 | 1.02 | 0.917 | 0.947 | 0.741 | 0.657 | 0.796 | 0.781 | 0.733 | 0.551 | 0.52 | 0.549 | 0.534 | 0.547 |  |  |  |  | 
11 | NCI-H1563 |  |  |  |  |  |  |  |  |  |  |  |  |  |  |  | 0.931 | 0.916 | 0.912 | 0.864 | 0.806
12 | NCI-H1299 |  |  |  |  |  |  |  |  |  |  |  |  |  |  |  | 1.06 | 1.06 | 1.12 | 1 | 1.12
13 | CAL-12T | 0.381 | 0.62 | 0.412 | 0.593 | 0.462 | 0.843 | 0.692 | 0.77 | 0.813 | 0.845 |  |  |  |  |  | 1.23 | 1.27 | 1.19 | 1.16 | 1.18
14 | SW 900 | 0.568 | 0.558 |  | 0.665 | 0.596 | 0.431 | 0.464 |  | 0.567 | 0.527 | 0.44 | 0.508 | 0.412 | 0.475 | 0.556 |  |  |  |  | 
15 | NCI-H1648 | 0.297 | 0.319 | 0.289 | 0.305 | 0.242 | 0.423 | 0.422 | 0.242 | 0.387 | 0.434 | 0.469 | 0.524 |  | 0.532 | 0.516 |  |  |  |  | 
16 | IA-LM |  |  |  |  |  | 1.07 | 0.967 |  | 1.07 | 1.04 |  |  |  |  |  | 0.874 | 0.876 | 0.928 | 0.941 | 0.952
17 | A549 |  |  |  |  |  |  |  |  |  |  | 0.298 | 0.26 | 0.263 | 0.313 | 0.306 | 0.877 | 0.884 | 0.833 | 0.809 | 0.794
18 | NCI-H1792 | 0.665 | 0.583 |  | 0.673 | 0.703 |  |  |  |  |  |  | 0.557 | 0.609 | 0.588 | 0.444 | 0.721 | 0.799 | 0.721 | 0.557 | 0.657
19 | NCI-H2228 | 0.804 | 0.821 | 0.76 | 0.865 | 0.613 | 0.972 | 0.61 | 0.935 | 0.895 | 0.869 |  |  |  |  |  | 0.794 | 0.922 | 0.784 | 0.564 | 0.711
